According to PubChem BioAssay (NCI):
Several values for one entry are separate records, joined by “and”; a condition that tells them apart may be missing. Equal entries are not always repeated.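 Assay format: 96-well plates, 48-hour exposure. Here, GI50 denotes the concentration required for 50% inhibition of growth. TGI: total growth inhibition.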

Columns and labels:
Assay in all cases: NCI-60 cell line screen, 48 h
A549 NSCLC = system: A549 NSCLC
HL-60(TB) leukemia = system: HL-60(TB) leukemia
K-562 leukemia = system: K-562 leukemia
MALME-3M melanoma = system: MALME-3M melanoma
NCI-H23 lung = system: NCI-H23 lung
RPMI-8226 leukemia = system: RPMI-8226 leukemia
RXF 393 renal = system: RXF 393 renal
SF-268 CNS = system: SF-268 CNS
SF-539 CNS = system: SF-539 CNS
BT-549 breast = system: BT-549 breast

SMILES	TGI (A549 NSCLC)	TGI (HL-60(TB) leukemia)	TGI (K-562 leukemia)	TGI (MALME-3M melanoma)	TGI (NCI-H23 lung)	TGI (RPMI-8226 leukemia)	TGI (RXF 393 renal)	TGI (SF-268 CNS)	TGI (SF-539 CNS)	TGI (BT-549 breast)	GI50 (A549 NSCLC)	GI50 (BT-549 breast)	GI50 (HL-60(TB) leukemia)	GI50 (K-562 leukemia)	GI50 (MALME-3M melanoma)	GI50 (NCI-H23 lung)	GI50 (RPMI-8226 leukemia)	GI50 (SF-268 CNS)	GI50 (SF-539 CNS)
COc1ccc(NC(=S)NN=C(C)c2cccc(C(C)=NNC(=S)Nc3ccc(OC)cc3)n2)cc1	> 100 µM	> 100 µM	> 100 µM	> 100 µM	> 100 µM	> 100 µM	> 100 µM	> 100 µM	> 100 µM										
COc1c2cc(C(C)(C)C)cc1CSCc1cc(C(C)(C)C)cc(c1OC)CCCCC2	> 50 µM	> 50 µM	> 50 µM	> 50 µM	> 50 µM			> 50 µM	> 50 µM	> 50 µM									
Cc1ccc(-c2cc(-c3ccco3)nc(N)n2)o1	> 100 µM	> 100 µM	> 100 µM	> 100 µM	> 100 µM	> 100 µM	> 100 µM	> 100 µM	> 100 µM										
Oc1c(Cl)c2nccnc2c2ccccc12	> 100 µM	> 100 µM	> 100 µM	> 100 µM	> 100 µM	> 100 µM	> 100 µM	> 100 µM	> 100 µM										
N#Cc1c(-c2ccco2)c2c(n(C3OC(CO)C(O)C(O)C3O)c1=S)CCCC2 (stereo not given)	> 100 µM	> 100 µM		> 100 µM	> 100 µM		> 100 µM	> 100 µM	> 100 µM										
COc1ccc(-n2c(CCCC(=O)O)nc3c2C(=O)c2ccccc2C3=O)cc1	> 100 µM	> 100 µM	> 100 µM	59.7 µM	> 100 µM	> 100 µM		> 100 µM	> 100 µM	> 100 µM									
CC1(C)CCc2c(cc3c(c2O)CCC(C)(C)O3)O1	> 100 µM	77.9 µM	> 100 µM	> 100 µM	> 100 µM			> 100 µM	> 100 µM	> 100 µM									
O=c1[nH]cnc2c1nnn2CCCn1nnc2c(=O)[nH]cnc21	> 100 µM	> 100 µM	> 100 µM		> 100 µM	> 100 µM	> 100 µM	> 100 µM	> 100 µM										
C[N+]1(C)CC=C(N2CCOCC2)CC1	> 10 µM	> 10 µM	> 10 µM	> 10 µM	> 10 µM	> 10 µM	> 10 µM	> 10 µM	> 10 µM										
N#Cc1[nH]c(=O)n(-c2ccc([N+](=O)[O-])cc2)c1N	> 10 µM	> 10 µM	> 10 µM	> 10 µM	> 10 µM	> 10 µM	> 10 µM	> 10 µM	> 10 µM										
O=C(NCc1cn(Cc2cccc(Oc3ccccc3)c2)nn1)c1cccnc1Nc1ccccc1	95.2 µM	19.5 µM	> 100 µM	> 100 µM	> 100 µM	> 100 µM		37.5 µM	8.6 µM	8.53 µM	4.81 µM	2.8 µM	3.74 µM	3.69 µM	16.1 µM	3.73 µM	3.61 µM	3.22 µM	3.1 µM
CN(C)[C@@H]1C(=O)C(C(N)=O)=C(O)[C@@]2(O)C(=O)C3=C(O)c4c(O)cccc4C[C@H]3C[C@@H]12	5.52 µM		6.65 µM	2.92 µM	4.27 µM		3.11 µM	3.23 µM	3.84 µM										
COC(=O)/C(=C/c1ccc(OC)cc1)C(C(=O)O)=C(C)C	> 100 µM	> 100 µM	> 100 µM	> 100 µM	> 100 µM	> 100 µM	> 100 µM	> 100 µM	> 100 µM										
c1cnc2c(c1)-n1cccc1C1(CCOCC1)NN2	> 100 µM	> 100 µM	> 100 µM	> 100 µM	> 100 µM	> 100 µM	> 100 µM	> 100 µM	> 100 µM										
C=C1CC2CC[C@@]34C[C@@H]5O[C@@H]6C(O[C@H]7CC[C@H](CC(=O)OC8[C@@H](C)C9OC%10C[C@]%11(C[C@@H]%12O[C@@]%13(C[C@@H](C)[C@@H]%12O%11)C[C@H](C)[C@@H]%11OC%12CC(C(O)CO)OC%12C[C@@H]%11O%13)OC%10CC9O[C@H]8C[C@H]8O[C@@H](CC[C@@H]1O2)C[C@@H](C)C8=C)O[C@@H]7[C@@H]6O3)C5O4 (stereo not given in full)	> 1.48 µM		> 1.48 µM	0.00977 µM	0.0068 µM and 0.00198 µM	> 1.48 µM	0.00451 µM	> 1.48 µM	0.00562 µM and 0.00215 µM		< 0.000148 µM		< 0.000148 µM	< 0.000148 µM		< 0.000148 µM	< 0.000148 µM	< 0.000148 µM	< 0.000148 µM
O=C(NCCNCCO)N/N=C/c1cccc([N+](=O)[O-])c1	> 100 µM	> 100 µM	> 100 µM	> 100 µM	> 100 µM	> 100 µM	> 100 µM	> 100 µM	> 100 µM										
C=CCN1C(=O)CS/C1=N\NC(=O)c1c(C)nc2sccn12	> 100 µM	> 100 µM	> 100 µM	> 100 µM	> 100 µM	> 100 µM	> 100 µM	> 100 µM	> 100 µM										

SMILES	TGI (A549 NSCLC)	TGI (HL-60(TB) leukemia)	TGI (K-562 leukemia)	TGI (MALME-3M melanoma)	TGI (NCI-H23 lung)	TGI (RPMI-8226 leukemia)	TGI (RXF 393 renal)	TGI (SF-268 CNS)	TGI (SF-539 CNS)	TGI (BT-549 breast)	GI50 (A549 NSCLC)	GI50 (BT-549 breast)	GI50 (HL-60(TB) leukemia)	GI50 (K-562 leukemia)	GI50 (MALME-3M melanoma)	GI50 (NCI-H23 lung)	GI50 (RPMI-8226 leukemia)	GI50 (SF-268 CNS)	GI50 (SF-539 CNS)
[N-]=N[N+]#I1OC(C(F)(F)F)(C(F)(F)F)c2ccccc21	39.2 µM	30.6 µM	> 100 µM		36.8 µM	51.8 µM	30.7 µM	27.9 µM	30.6 µM										
Nc1c(Br)cc(-c2cc(Br)c(N)c(Br)c2)cc1Br	> 100 µM	> 100 µM	> 100 µM	> 100 µM	> 100 µM	> 100 µM	> 100 µM	> 100 µM	> 100 µM										
O=c1cnn(C2OC(CO)C(O)C(F)C2O)c(=O)[nH]1 (stereo not given)	> 100 µM	> 100 µM	> 100 µM	> 100 µM	> 100 µM	> 100 µM		> 100 µM	> 100 µM	> 100 µM									
C=C/C(C)=C/[C@H](C)C(=O)C[C@H](O)CC1CC(=O)NC(=O)C1	> 100 µM	> 100 µM	> 100 µM	> 100 µM	> 100 µM	> 100 µM	> 100 µM	> 100 µM	> 100 µM										
O=[N+]([O-])/C(C(Cl)=C(Cl)Cl)=C1\Nc2ccccc2O1	> 100 µM	48.7 µM	> 100 µM	> 100 µM	> 100 µM	75.6 µM	> 100 µM	> 100 µM	38.6 µM										
COc1ccc2c(c1O)-c1c(OC)c(OC)cc3c1[C@H](C2)[N+](C)(C)CC3	> 100 µM	> 100 µM	> 100 µM	> 100 µM	> 100 µM	> 100 µM		> 100 µM	> 100 µM	> 100 µM									
Oc1ccc(-c2cc(-c3c(O)cc(O)cc3O)on2)cc1	> 100 µM	> 100 µM	> 100 µM	> 100 µM	> 100 µM	> 100 µM		> 100 µM	> 100 µM	> 100 µM									
COc1ccc(C2CC(c3cc4c(C)c(C(=O)c5ccccc5)oc4cc3O)=Nc3ccccc3S2)cc1OC (stereo not given)	> 100 µM	> 100 µM	> 100 µM	> 100 µM	> 100 µM	> 100 µM		> 100 µM	> 86.2 µM	> 100 µM									
O=C(CCN1CCCCC1CCO)Nc1ccc2c(c1)C(=O)c1ccc(NC(=O)CCN3CCCCC3CCO)cc1C2=O (stereo not given)	41.1 µM	19 µM	> 100 µM	10.9 µM	40.3 µM	31.8 µM	6.46 µM	25.4 µM	7.89 µM										
CC1=C/C(=C(\c2ccc(N(C)C)cc2)c2ccc([N+](C)(C)C)cc2)C=CC1=[N+](C)C	28.9 µM	5.93 µM	> 100 µM	32.3 µM	26.6 µM	5.44 µM	25.4 µM	26.3 µM	34.6 µM										
COc1cc2c(cc1O)[C@H](C)C(c1ccc(Cl)cc1)O2 (stereo not given in full)	98.6 µM	35.6 µM	51.7 µM	80.6 µM	70.8 µM	25.6 µM	77.5 µM	72.6 µM	> 100 µM										
COc1ccc(C[C@@H]2CN(C(=O)c3ccccc3)[C@H](Cc3ccc(O)cc3)CN2C(=O)c2ccccc2)cc1Br	> 100 µM	> 100 µM	> 100 µM	> 100 µM	> 100 µM	> 100 µM		> 100 µM	> 100 µM	> 100 µM									
On1c(-c2ccccc2)c(-c2c(-c3ccccc3)n(O)c3ccccc23)c2ccccc21	> 100 µM	> 100 µM	> 100 µM	79.7 µM	90.1 µM		> 100 µM	> 100 µM	58.8 µM										
c1ccc2[nH]c(-c3nc4ccccc4o3)nc2c1	> 100 µM	> 100 µM		> 100 µM	> 100 µM	> 100 µM		> 100 µM	> 100 µM										
CS(=O)(=O)NNS(=O)(=O)c1ccc(Br)cc1	> 100 µM	> 100 µM	> 100 µM	> 100 µM	> 100 µM	> 100 µM	> 100 µM	> 100 µM	> 100 µM										
CN1CC(c2ccccc2)=Cc2c1ccc(N)c2N=N	> 100 µM		> 100 µM	> 100 µM	> 100 µM	> 100 µM		> 100 µM	> 100 µM	> 100 µM									
